Drawing on PubChem BioAssay (NCI), this text covers TGI for nine molecules.

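In this assay, cells in 96-well plates receive the compound at five concentrations for 48 hours. Endpoints are linearly interpolated between the surrounding concentrations. The concentration for full growth arrest is given as TGI.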 A value given as a limit tells only on which side of the number the result lay.

Holding throughout (experiment): inhibition of tumour cell growth, NCI panel, 48 h
Experiment [1] concerns 786-0 renal.
Experiment [2] concerns CAKI-1 renal.
Experiment [3] relates to CCRF-CEM leukemia.
The test system of experiment [4] is IGROV1 ovarian.
In experiment [5] the test system is MALME-3M melanoma.
The test system of experiment [6] is MCF7 breast.
For experiment [7], the system named is MDA-MB-231 breast.
Experiment [8] deals with MOLT-4 leukemia.
Experiment [9] concerns NCI-H522 lung.
The subject of experiment [10] is OVCAR-3 ovarian.
Experiment [11] has as its system OVCAR-5 ovarian.
Experiment [12] deals with OVCAR-8 ovarian.
Experiment [13] has as its system PC-3 prostate.
For experiment [14], the system named is SF-539 CNS.
In experiment [15] the test system is SR leukemia.
The subject of experiment [16] is U251 CNS.
Experiment [17] concerns UO-31 renal.
In experiment [18] the test system is HS 578T breast.
For experiment [19], the system named is SK-MEL-28 melanoma.

For `COc1ccc2c(c1)OCC1Cc3ccccc3OC21` (centres undefined), the TGI in [1], in [2], in experiment [3], in [4], in experiment [5] and in experiment [6] was greater than 100 µM throughout. Besides, the TGI in experiment [7], in experiment [8], in [9], in [10], in [11] and in experiment [12] was greater than 100 µM throughout. Besides, the TGI in [13] was greater than 100 µM; in experiment [14] it was greater than 100 µM; in experiment [15] it was greater than 100 µM; in experiment [16], greater than 10 µM; in [17] it was greater than 100 µM.
With `CCOC(=O)C1=C(C)C2C=C(c3cccs3)CC(c3ccc(Cl)cc3)=C2OC1=O` (centres undefined), the TGI is 67.1 µM in experiment [1]; greater than 100 µM in experiment [2]; 60.1 µM in experiment [3]; greater than 100 µM in experiment [18]; greater than 100 µM in experiment [4]; greater than 100 µM in experiment [6]. For the same molecule, the TGI in experiment [7], in experiment [8], in experiment [9], in experiment [10], in [11] and in experiment [12] was greater than 100 µM throughout. Further, the TGI in experiment [13] was greater than 100 µM; in experiment [19] it was greater than 100 µM; in [15], 50 µM; in experiment [16], greater than 100 µM; in experiment [17], greater than 100 µM.
Regarding `CN(C)c1ccc(S(=O)Nc2ccccc2)cc1` (centres undefined), the TGI in [1], in experiment [3], in [18], in experiment [4], in [5] and in experiment [6] was greater than 100 µM each time. Moreover, the TGI in experiment [7], in experiment [8], in [9], in experiment [10], in experiment [11] and in experiment [12] was greater than 100 µM each time. The TGI in [14] is greater than 100 µM; in experiment [19] it was greater than 100 µM; in experiment [15], greater than 100 µM; in experiment [16] it was 62.9 µM; in experiment [17], greater than 100 µM.
For `OCCc1ccsc1-c1sc(-c2cc(CCO)c(-c3sccc3CCO)s2)cc1CCO`, the TGI in experiment [1] was 29 µM; in experiment [2], 44.3 µM; in experiment [3], greater than 100 µM; in [4] it was 29.5 µM; in experiment [5] it was 23.7 µM; in experiment [6], 31 µM. Besides, the TGI is 48.5 µM in [7]; greater than 100 µM in experiment [8]; 25.7 µM in experiment [9]; 32.5 µM in experiment [10]; 32.4 µM in [11]; 29.5 µM in experiment [12]. The TGI is 24.1 µM in [13]; 41.4 µM in experiment [19]; greater than 100 µM in experiment [15]; 49 µM in [16]; 31.4 µM in experiment [17].
As for `O=c1[nH]c(=O)n(C2OC(CO)C(O)C2O)c2nc(-c3ccc(-c4ccccc4)cc3)cnc12` (centres undefined), the TGI in experiment [1], in experiment [2], in [3], in [18], in [4] and in [5] was greater than 100 µM throughout. Besides, the TGI in experiment [6], in [7], in experiment [8], in [9], in [11] and in experiment [12] was greater than 100 µM throughout. Also, the TGI in [13], in experiment [14], in experiment [16] and in experiment [17] was greater than 100 µM throughout.
As for `CC1=C[C@@H]2Cc3nc4cc(Cl)ccc4c(N)c3[C@H](C1)C2`, the TGI stood at 19 µM in experiment [1]; 17.4 µM in experiment [2]; 74 µM in [3]; 9.75 µM in [18]; 8.14 µM in [4]; 24.6 µM in experiment [5]. Also, the TGI in [6] is 23.3 µM; in [7] it was 28.7 µM; in experiment [8], 11.6 µM; in experiment [10], 24.2 µM; in [11], 17.3 µM; in experiment [12], 38.9 µM. In addition, the TGI was 26.9 µM in experiment [13]; 25.3 µM in [14]; 25.1 µM in [19]; 37.7 µM in experiment [16]; 17.7 µM in [17].
Take `COc1cc(C2c3cc4c(cc3OC(NN)C2C)OCO4)cc(OC)c1OC` (centres undefined): the TGI is greater than 100 µM in [1]; greater than 90.6 µM in [2]; greater than 93 µM in [3]; greater than 100 µM in [18]; greater than 100 µM in experiment [4]; greater than 100 µM in experiment [5]. For the same molecule, the TGI is greater than 40 µM in experiment [6]; greater than 91.1 µM in [7]; greater than 100 µM in experiment [8]; 8.96 µM in experiment [9]; 1.04 µM in [10]; greater than 100 µM in experiment [11]. In addition, the TGI in experiment [12] was greater than 100 µM; in experiment [13] it was greater than 100 µM; in experiment [14] it was 0.6 µM; in experiment [19], greater than 100 µM; in experiment [16] it was 16.2 µM; in [17] it was greater than 100 µM.
Take `Cc1cc(N(CCOS(C)(=O)=O)CCOS(C)(=O)=O)ccc1C=O`: the TGI in [2] was 1.25 µM; in experiment [3], greater than 100 µM; in [18], 94 µM; in experiment [4] it was 39.2 µM; in experiment [5], 28.1 µM; in experiment [6], 32 µM. In addition, the TGI in experiment [7] was 94.6 µM; in experiment [8], 14.8 µM; in experiment [9], 0.379 µM; in experiment [10] it was 70.9 µM; in experiment [11] it was 33.8 µM; in experiment [12], greater than 100 µM. In addition, the TGI was greater than 100 µM in experiment [13]; 2.88 µM in experiment [14]; 31.3 µM in experiment [19]; 67.4 µM in [16]; 35.1 µM in [17].
For the molecule `CS(=O)(=O)OCC(CCl)(CCl)CCl`, the TGI in experiment [3], in [18], in [6], in experiment [7], in [8] and in [9] was greater than 100 µM throughout. The TGI in experiment [10], in [12], in experiment [13], in experiment [19], in [15] and in experiment [16] was greater than 100 µM each time. The molecule also yielded a TGI in experiment [17] greater than 100 µM.
